This passage reports growth results from ChEMBL document CHEMBL3994622, “Design and synthesis of new RAF kinase-inhibiting antiproliferative quinoline derivatives. Part 2: Diarylurea derivatives” (Eur J Med Chem, 2017).

Type in all cases: functional
Assay [1] concerns SK-MEL-2. The assay can be described thus: Growth inhibition of human SK-MEL-2 cells assessed as cell growth at 30 uM incubated for 48 hrs by sulforhodamine B assay relative to control. Conditions: SK-MEL-2, 48 h, read-out: Activity. (In general: In SRB staining, fixed cells bind dye roughly in proportion to their protein.)
Assay [2] deals with HOP-62. The assay can be described thus: Growth inhibition of human HOP62 cells assessed as cell growth at 3 uM incubated for 48 hrs by sulforhodamine B assay relative to control. Particulars: HOP-62, 48 h, read-out: Activity.
Assay [3] deals with M14. Nature of the assay: Growth inhibition of human M14 cells assessed as cell growth at 3 uM incubated for 48 hrs by sulforhodamine B assay relative to control. Particulars: M14, 48 h, read-out: Activity.
In assay [4] the test system is TK-10. Nature of the assay: Growth inhibition of human TK10 cells assessed as cell growth at 0.3 uM incubated for 48 hrs by sulforhodamine B assay relative to control. Conditions: TK-10, 48 h, read-out: Activity.
The subject of assay [5] is MDA-MB-435. The assay can be described thus: Growth inhibition of human MDA-MB-435 cells assessed as cell growth at 0.3 uM incubated for 48 hrs by sulforhodamine B assay relative to control. Particulars: MDA-MB-435, 48 h, read-out: Activity.
The test system of assay [6] is A498. The assay can be described thus: Growth inhibition of human A498 cells assessed as cell growth at 0.03 uM incubated for 48 hrs by sulforhodamine B assay relative to control. Conditions: A498, 48 h, read-out: Activity.
Assay [7] relates to HCT-116. Nature of the assay: Growth inhibition of human HCT116 cells assessed as cell growth at 0.3 uM incubated for 48 hrs by sulforhodamine B assay relative to control. Particulars: HCT-116, 48 h, read-out: Activity.
Assay [8] concerns NCI-H460. Nature of the assay: Growth inhibition of human NCI-H460 cells assessed as cell growth at 3 uM incubated for 48 hrs by sulforhodamine B assay relative to control. Conditions: NCI-H460, 48 h, read-out: Activity.
Assay [9] has as its system OVCAR-3. The assay can be described thus: Growth inhibition of human OVCAR3 cells assessed as cell growth at 0.03 uM incubated for 48 hrs by sulforhodamine B assay relative to control. Particulars: OVCAR-3, 48 h, read-out: Activity.
Assay [10] deals with MOLT-4. The assay can be described thus: Growth inhibition of human MOLT4 cells assessed as cell growth at 0.003 uM incubated for 48 hrs by sulforhodamine B assay relative to control. Particulars: MOLT-4, 48 h, read-out: Activity.
Assay [11] deals with MCF7. Nature of the assay: Growth inhibition of human MCF7 cells assessed as cell growth at 0.03 uM incubated for 48 hrs by sulforhodamine B assay relative to control. Conditions: MCF7, 48 h, read-out: Activity.
In assay [12] the test system is TK-10. The assay can be described thus: Growth inhibition of human TK10 cells assessed as cell growth at 0.003 uM incubated for 48 hrs by sulforhodamine B assay relative to control. Particulars: TK-10, 48 h, read-out: Activity.
Assay [13] concerns HOP-62. Nature of the assay: Growth inhibition of human HOP62 cells assessed as cell growth at 0.03 uM incubated for 48 hrs by sulforhodamine B assay relative to control. Particulars: HOP-62, 48 h, read-out: Activity.
Assay [14] relates to HCC 2998. The assay can be described thus: Growth inhibition of human HCC2998 cells assessed as cell growth at 30 uM incubated for 48 hrs by sulforhodamine B assay relative to control. Conditions: HCC 2998, 48 h, read-out: Activity.
The subject of assay [15] is NCI-H522. Nature of the assay: Growth inhibition of human NCI-H522 cells assessed as cell growth at 0.3 uM incubated for 48 hrs by sulforhodamine B assay relative to control. Conditions: NCI-H522, 48 h, read-out: Activity.
The test system of assay [16] is OVCAR-5. Nature of the assay: Growth inhibition of human OVCAR5 cells assessed as cell growth at 3 uM incubated for 48 hrs by sulforhodamine B assay relative to control. Conditions: OVCAR-5, 48 h, read-out: Activity.
Assay [17] has as its system UACC-62. Nature of the assay: Growth inhibition of human UACC62 cells assessed as cell growth at 0.3 uM incubated for 48 hrs by sulforhodamine B assay relative to control. Conditions: UACC-62, 48 h, read-out: Activity.
The subject of assay [18] is SF-295. The assay can be described thus: Growth inhibition of human SF295 cells assessed as cell growth at 30 uM incubated for 48 hrs by sulforhodamine B assay relative to control. Particulars: SF-295, 48 h, read-out: Activity.
Assay [19] deals with OVCAR-3. The assay can be described thus: Growth inhibition of human OVCAR3 cells assessed as cell growth at 3 uM incubated for 48 hrs by sulforhodamine B assay relative to control. Particulars: OVCAR-3, 48 h, read-out: Activity.
Assay [20] has as its system EKVX. Nature of the assay: Growth inhibition of human EKVX cells assessed as cell growth at 0.01 uM incubated for 48 hrs by sulforhodamine B assay relative to control. Particulars: read-out: Activity.
Assay [21] relates to M14. Nature of the assay: Growth inhibition of human M14 cells assessed as cell growth at 100 uM incubated for 48 hrs by sulforhodamine B assay relative to control. Particulars: M14, 48 h, read-out: Activity.
Assay [22] relates to MDA-MB-435. Nature of the assay: Growth inhibition of human MDA-MB-435 cells assessed as cell growth at 100 uM incubated for 48 hrs by sulforhodamine B assay relative to control. Particulars: MDA-MB-435, 48 h, read-out: Activity.
For assay [23], the system named is EKVX. The assay can be described thus: Growth inhibition of human EKVX cells assessed as cell growth at 0.1 uM incubated for 48 hrs by sulforhodamine B assay relative to control. Particulars: read-out: Activity.
Assay [24] relates to RPMI-8226. The assay can be described thus: Growth inhibition of human RPMI8226 cells assessed as cell growth at 0.01 uM incubated for 48 hrs by sulforhodamine B assay relative to control. Conditions: RPMI-8226, 48 h, read-out: Activity.
The test system of assay [25] is ACHN. Nature of the assay: Growth inhibition of human ACHN cells assessed as cell growth at 100 uM incubated for 48 hrs by sulforhodamine B assay relative to control. Particulars: read-out: Activity.
Assay [26] has as its system NCI-H322M. The assay can be described thus: Growth inhibition of human NCI-H322M cells assessed as cell growth at 1 uM incubated for 48 hrs by sulforhodamine B assay relative to control. Conditions: read-out: Activity.
The subject of assay [27] is SF-539. Nature of the assay: Growth inhibition of human SF539 cells assessed as cell growth at 10 uM incubated for 48 hrs by sulforhodamine B assay relative to control. Conditions: SF-539, 48 h, read-out: Activity.
In assay [28] the test system is T47D. The assay can be described thus: Growth inhibition of human T47D cells assessed as cell growth at 0.1 uM incubated for 48 hrs by sulforhodamine B assay relative to control. Particulars: read-out: Activity.
Assay [29] deals with UACC-62. Nature of the assay: Growth inhibition of human UACC62 cells assessed as cell growth at 1 uM incubated for 48 hrs by sulforhodamine B assay relative to control. Particulars: UACC-62, 48 h, read-out: Activity.
The test system of assay [30] is NCI-H460. Nature of the assay: Growth inhibition of human NCI-H460 cells assessed as cell growth at 100 uM incubated for 48 hrs by sulforhodamine B assay relative to control. Conditions: NCI-H460, 48 h, read-out: Activity.
Assay [31] relates to PC-3. The assay can be described thus: Growth inhibition of human PC3 cells assessed as cell growth at 100 uM incubated for 48 hrs by sulforhodamine B assay relative to control. Particulars: PC-3, 48 h, read-out: Activity.
Assay [32] deals with U-251. The assay can be described thus: Growth inhibition of human U251 cells assessed as cell growth at 100 uM incubated for 48 hrs by sulforhodamine B assay relative to control. Conditions: U-251, 48 h, read-out: Activity.
Assay [33] concerns KM12. The assay can be described thus: Growth inhibition of human KM12 cells assessed as cell growth at 1 uM incubated for 48 hrs by sulforhodamine B assay relative to control. Particulars: KM12, 48 h, read-out: Activity.
For assay [34], the system named is SW-620. Nature of the assay: Growth inhibition of human SW620 cells assessed as cell growth at 0.1 uM incubated for 48 hrs by sulforhodamine B assay relative to control. Particulars: SW-620, 48 h, read-out: Activity.
Assay [35] concerns IGROV-1. The assay can be described thus: Growth inhibition of human IGROV1 cells assessed as cell growth at 10 uM incubated for 48 hrs by sulforhodamine B assay relative to control. Conditions: IGROV-1, 48 h, read-out: Activity.

Each structure is given as a SMILES string.

As to `Cc1nc2cc(O)c(O)cc2cc1Oc1ccc(NC(=O)Nc2ccc(Cl)c(Cl)c2)cc1`, the results for the growth at 30 µM in [1], in [14] and in assay [18] were -25%, -51% and 9%, respectively. For the same compound, the growth at 3 µM in assay [2] amounted to 87%; in assay [3], 86%; in [8], 96%; in assay [16] it was 119%; in assay [19], 107%. In addition, the growth at 0.3 µM in assay [4] stood at 98%; in assay [5] it was 90%; in assay [7], 90%; in [15] it was 93%; in [17], 100%. In addition, the growth at 0.03 µM is 75% in assay [6], 107% in assay [9], 89% in assay [11] and 105% in assay [13]. For the same compound, the values for the growth at 0.003 µM in assay [10] and in [12] were 106% and 98%, respectively.
`COc1cc2cc(Oc3ccc(NC(=O)Nc4ccc(Cl)c(C(F)(F)F)c4)cc3)c(C)nc2cc1OC`: the growth at 30 µM in assay [1] is -69%; in assay [14], -98%; in assay [18] it was -59%. Besides, the growth at 3 µM in [2] is 26%; in assay [3], 18%; in [8], 3%; in assay [16], 32%; in [19], 14%. For the same compound, the growth at 0.3 µM in [4] was determined as 100%; in [5] it was 91%; in [7] it was 91%; in assay [15], 85%; in [17], 81%. The growth at 0.03 µM was 68% in assay [6], 91% in assay [9], 97% in [11] and 106% in [13]. Also, the growth at 0.003 µM in assay [10] stood at 102%; in assay [12] it was 94%.
Consider `COc1cc2cc(Oc3ccc(NC(=O)Nc4ccc(Cl)c(Cl)c4)cc3)c(C)nc2cc1OC`, for which the growth at 0.01 µM in assay [20] came to 94%; in [24], 100%. The growth at 100 µM in [21] was -94%; in assay [22], -45%; in assay [25], -61%; in [30], -76%; in assay [31], -96%; in assay [32], -100%. Further, the results for the growth at 0.1 µM in [23], in [28] and in [34] were 93%, 103% and 101%, respectively. For the same compound, the growth at 1 µM in [26] was 102%; in assay [29], 77%; in assay [33], 93%. Moreover, the growth at 10 µM in assay [27] came to 29%; in assay [35], 30%.
As for `COc1cc2cc(Oc3ccc(NC(=O)Nc4cc(C(F)(F)F)cc(C(F)(F)F)c4)cc3)c(C)nc2cc1OC`, the growth at 0.01 µM in assay [20] came out at 89%; in assay [24], 98%. The growth at 100 µM is -66% in [21]; -63% in assay [22]; -89% in assay [25]; -73% in assay [30]; -57% in [31]; -83% in assay [32]. Further, the growth at 0.1 µM in assay [23] was 89%; in assay [28] it was 95%; in [34], 100%. Further, the growth at 1 µM turned out to be 59% in [26], 35% in assay [29] and 48% in [33]. Moreover, the results for the growth at 10 µM in assay [27] and in assay [35] were -72% and -55%, respectively.
